Data published in patent US8609649B2, “Compositions and methods for the diagnosis, treatment, and prevention of amyotrophic lateral sclerosis and related neurological diseases” (Brandeis University, priority 2007, dated 2013).

How the values were obtained:
[1] = system: humans with systolic hypertension and moderately severe diastolic heart failure; conditions: 16 weeks, 23 humans; cited from earlier work
[2] = system: diabetic rats; conditions: cited from earlier work
[3] = system: diabetic hyperlipidemic mice; conditions: cited from earlier work
[4] = system: hypertensive subjects; conditions: 93 hypertensive subjects age greater than 50 years, compared with placebo; cited from earlier work
[5] = cited from earlier work
[6] = target: SOD-1 Cys111 (Homo sapiens, UniProt P00441); experiment: Intersubunit crosslinking of SOD-1; type: biochemical; conditions: FIG. 16
[7] = system: AGE formation; conditions: in vitro; cited from earlier work
[8] = humans; cited from earlier work
[9] = system: mice; conditions: cited from earlier work
[10] = system: proteasome; experiment: Proteasome activity in SOD-1-expressing stably transfected NIH/3T3 cell lines; type: cell-based; conditions: NIH/3T3 cell lines expressing the SOD-1 variant
Description: Therefore, one aspect of the invention relates to monitoring proteasome activity to screen for potential ALS therapeutic compounds. FIG. 2 illustrates the results of using SOD-1 expressing cells (eG93A SOD-1 expressing clones; wild-type SOD-1 expressing clones; and […] G93A SOD-1 expressing clones) for said purpose. In certain embodiments, the assay involves administration of different concentrations of a given compound to G93A- and wild-type SOD-1 cell lines, and assaying proteasome activity. Successful compounds, in analogy to […]/G93A double mutant (FIG. 2), will relieve G93A SOD-1 associated proteasome inhibition. […] With successful hits, SOD-1 protein can be immunopurified from cell cultures to determine if there is any direct chemical bonding to SOD-1. pcDNA-3 vector with wild-type SOD-1, G93A SOD-1, […] SOD-1, […] G93A SOD-1 cDNA sequence were prepared by standard site-directed mutagenesis techniques. NIH/3T3 cells were maintained in Dulbecco's modified Eagle's medium (ATCC, Mannassas, Va.) supplemented with 10% newborn calf serum (Invitrogen, Carlsbad, Calif.). Cells were transfected with the plasmids using Lipofectamine 2000 (Invitrogen, Carlsbad, Calif.). A mock transfection was performed and cells were transfected under the same conditions but using either empty pcDNA-3 expression vector or no vector (to test the efficiency of selection). […]

[11] = system: cultured motor neurons; experiment: Viability of motor neurons microinjected with plasmid encoding SOD-1 variants; type: cell-based, mouse; conditions: motor neurons expressing the SOD-1 variant, 10 days of observation, linear curve fit
Description: (§1) Dissociation of spinal cord-dorsal root ganglia from embryonic day 13 CD 1 mice (Charles River Laboratories, Wilmington, Mass.), plating on poly-D-lysine-coated coverslips, culture media, and identification of motor neurons were as previously described. Roy, J., Minotti, S., Dong, L., Figlewicz, D. A., and Durham, H. D. (1998) J. Neurosci. 18, 9673-9684. Cultures were used 3-6 weeks after plating.
(§2) Subcloning of SOD-1G93A and SOD-1 wt cDNAs into the BamHI/HindIII sites of pcDNA3 (Invitrogen) was performed previously using cDNAs provided by Dr. Denise Figlewicz (University of Michigan, Ann Arbor, Mich.). Wang, J., Xu, G., and Borchelt, D. R. (2002) Neurobiol. Dis. 9, 139-148. Trp 4 Phe (W32F) mutations were created by site-specific mutagenesis of SOD-1 G93A and SOD-1 wt (TOP Gene Technologies, Quebec, Canada), producing SOD-1 W32F/G93A and SOD-1 W32F mutants, respectively. Intranuclear microinjection of plasmids was used to express SOD-1 constructs in motor neurons and to assess their effects on the survival and formation of inclusions as previously described Durham, H. D., Roy, J., Dong, L., and Figlewicz, D. A. (1997) J. Neuropathol. Exp. Neurol. 56, 523-530.
For viability experiments, motor neurons containing the co-injected fluorescent marker were counted daily under epifluorescence microscopy beginning 24 h post-microinjection. The number of motor neurons was expressed as a percentage of those present at 24 h to exclude those dying from injury during microinjection. The morphology of each cell was also evaluated by phase microscopy. All experiments involved a minimum of six cultures per condition with 20-80 motor neurons (average of 40) analyzed per culture. All experimental groups were analyzed simultaneously using cultures from the same batch, but each set of conditions was assessed for reproducibility in more than one culture batch. For viability experiments, injectates were coded by an independent researcher, and cell counts for viability were carried out blind to the identity of the experimental condition. Rates of cell death were calculated by a linear curve fit of the data (see FIG. 11) and are expressed as the percentage of death/day. The lowest observed linear regression r2 value was 0.94, and the average value was 0.96.
For the survival assays, statistical significance was determined using analysis of variance between groups (SigmaStat, Systat Software, Inc., Point Richmond, Calif.). Significance was established at p less than or equal to 0.05. Data for percentage of motor neurons with inclusions were tested for normal distribution and then compared using a one-tailed, two-sample t test for equal means under the assumption of unequal variance. A null hypothesis of equal means was rejected when p is less than or equal to 0.05.

[12] = system: cultured motor neurons; experiment: SOD-1-positive cytoplasmic inclusions in microinjected motor neurons; type: cell-based, mouse
Description: as §1
as §2, with “523-530. […]” for “523-530.”
For the survival assays, statistical significance was determined using analysis of variance between groups (SigmaStat, Systat Software, Inc., Point Richmond, Calif.). […]

[13] = 12 weeks therapy, diabetic hypertensive rats

Sequence of SOD-1 Cys111 (P00441 2-154 limits assumed): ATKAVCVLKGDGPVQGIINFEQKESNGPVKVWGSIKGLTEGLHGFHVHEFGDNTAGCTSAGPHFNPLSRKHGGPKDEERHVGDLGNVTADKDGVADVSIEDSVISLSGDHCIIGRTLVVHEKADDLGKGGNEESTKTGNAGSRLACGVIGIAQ

For `Cc1sc[n+](CC(=O)c2ccccc2)c1C.[Cl-]` [ALT-711, alagebrium chloride], the “left ventricular mass, left ventricular filling, patient ratings of quality of life” value [1] is given as “decreased left ventricular mass, improved left ventricular filling, and improved patient ratings of quality of life”, the “levels of AGEs, RAGE expression, diabetic nephropathy, myocardial stiffness” value ([2]; diabetic rats) is given as “decrease” and the “atherosclerosis, cholesterol and systolic blood pressure” value [3] is given as “attenuated atherosclerosis and decreased cholesterol and systolic blood pressure”. For the same compound, the “pulse pressure and arterial stiffness” value [4] was “significant reduction”.
For `CC(=O)NCCNC(=N)NN.Cl` [ALT-946, N-(2-acetamidoethyl)hydrazinecarboximidamide hydrochloride], the “decrease of albuminuria compared with aminoguanidine therapy” value [2, 13] is given as 250%, the “renal AGEs by histologic analysis” value [2, 13] is given as “reduce renal AGEs” and the albuminuria ([2]; rat model, used at the onset of diabetes and initiated after 16 weeks of diabetes) is given as “reduced albuminuria”.
In the case of `N=C(N)NN` [Aminoguanidine], the incidence of glomerulonephritis ([5]; higher dose) is listed as “increased incidence”, the proteinuria ([5]; lower dose, P<0.001) is listed as “equally effective” and the retinopathy progression ([5]; lower dose, P=0.03) is listed as “preventing retinopathy progression”. The serious side effects ([5]; lower dose) was “free of serious side effects” and the “nephropathy, retinopathy, and vessel elasticity” value ([2]; diabetic rats) was “improve”.
For `O=C1C=CC(=O)N1CCSSCCN1C(=O)C=CC1=O` [DTME], the “intersubunit crosslinking of SOD-1 Cys111” value [6] was “intersubunit crosslinking”.
With `C=CS(=O)(=O)CCCCCCS(=O)(=O)C=C` [HBVS] the “intersubunit crosslinking of SOD-1 Cys111” value [6] was “intersubunit crosslinking”.
In the case of `CN(C)C(=N)N=C(N)N` [Metformin], the AGE formation [7] is given as “prevent AGE formation”.
For `O=C(C[n+]1ccsc1)c1ccccc1.[Br-]` [N-phenacylthiazolium bromide], the AGEs ([2]; diabetic rat models) is listed as “decrease AGEs” and the “nephropathy as measured by proteinuria” value ([2]; diabetic rat models) is listed as “has not decreased nephropathy”.
In the case of `Cc1ncc(CO)c(CN)c1O` [Pyridoxamine], the cholesterol levels ([2]; compared with aminoguanidine) is given as “lowered cholesterol levels more than aminoguanidine”, the diabetic nephropathy ([2]; compared with aminoguanidine) is given as “inhibited diabetic nephropathy equally to aminoguanidine” and the AGE formation ([2]; nondiabetic and diabetic rats) is given as “retarded AGE formation”. For the same compound, the weight ([2]; nondiabetic and diabetic rats) was “mild weight loss”.
For `CCCCC1=NC2(CCCC2)C(=O)N1Cc1ccc(-c2ccccc2-c2nnn[nH]2)cc1` [irbesartan], the AGE formation [7] is given as “effective in vitro at decreasing AGE formation” and the vascular inflammation [8] is given as “decreased vascular inflammation”.
For `CCCCc1nc(Cl)c(CO)n1Cc1ccc(-c2ccccc2-c2nn[nH]n2)cc1` [losartan], the AGE formation [7] is given as “effective in vitro at decreasing AGE formation”.
For `CCC[C@H](N[C@@H](C)C(=O)N1[C@H](C(=O)O)C[C@@H]2CCCC[C@@H]21)C(=O)OCC` [perindopril], the RAGE levels [8] is listed as “decreased RAGE levels” and the atherosclerosis [9] is listed as “inhibited atherosclerosis”.
For `CCCc1nc2c(C)cc(-c3nc4ccccc4n3C)cc2n1Cc1ccc(-c2ccccc2C(=O)O)cc1` [telmisartan], the AGE formation [7] is given as “effective in vitro at decreasing AGE formation”.
In the case of `O=C(O)CN1C[C@@H](c2cccs2)SC[C@H](N[C@@H](CCc2ccccc2)C(=O)O)C1=O` [temocaprilat], the AGE formation [7] is listed as “effective in vitro at decreasing AGE formation”.
For `CCCCC(=O)N(Cc1ccc(-c2ccccc2-c2nnn[nH]2)cc1)[C@H](C(=O)O)C(C)C` [valsartan], the AGE formation [7] is listed as “effective in vitro at decreasing AGE formation”.
For “SOD-1^G93A: disease-causing mutant copper/zinc superoxide dismutase with the G93A mutation”, the proteasome activity [10] was “near complete inhibition” and the “rate of death of motor neurons” value [11] was 6.8 %/day.
With “SOD-1^W32F/G93A: SOD-1 with the double mutation W32F and G93A” the “percentage of motor neurons with SOD-1 inclusions” value ([12]; days 5 and 7, versus SOD-1G93A) was “No significant difference”, the “percentage of motor neurons with SOD-1 inclusions” value ([12]; post-microinjection day 3, versus SOD-1G93A, p<0.005) was “significantly lower proportion” and the “rate of death of motor neurons” value [11] was 3.6 %/day.
In the case of “SOD-1^W32F: SOD-1wt with Trp-32 replaced with Phe”, the “rate of death of motor neurons” value [11] is reported as 4.3 %/day.
With “SOD-1^wt: wild-type human copper/zinc superoxide dismutase” the “rate of death of motor neurons” value [11] was 3.0 %/day.
